# Data taken from paper PMC12202533, “Mechanistic Insights and Anti-cancer Activity of 2H-benzo[b][1,4]oxazin-3(4H)-one Linked 1,2,3-Triazoles in Human Cancer Cells” (Frontiers in Pharmacology, 2025).
# Legend:
# [1] = CCK-8 cell viability assay, normal cell line; format: cell-based; conditions: human, BEAS-2B cells (normal cell line), BEAS-2B normal cell line, read-out: Cell viability (100%), 40 μM, 48 h, BEAS-2B
# Method: In order to investigate the anticancer activity of new synthetic 1,4-benzoxazinone-linked 1,2,3-triazole compounds, we chose several cancer cell lines, including A549 (lung), Huh7 (liver), MCF-7 (breast), HCT-116 (colon), and SKOV3 (ovary), and measured cell viability using the CCK-8 assay. Cells were exposed to 40 μM of the compounds for 48 h, and then cell viability was determined. […] In addition, we used the reference drug gefitinib as a positive control and measured its cell viability on different cell lines. […] We used BEAS-2B cells as a normal cell line to determine the toxic effects of these compounds on normal cells. […] Furthermore, we evaluated the IC50 of these compounds in A549.
# Cells were cultured in DMEM or RPMI 1640 medium containing 10% FBS and 1% penicillin/streptomycin at 37°C and 5% CO2. The CCK-8 assay was performed on several human cancer cell lines, including A549, Huh7, MCF-7, HCT-116, and SKOV3, according to the manufacturer’s instructions. Cells were plated at a density of 5 × 10^3 cells per well in a 96-well plate. After 24 h of incubation, cells were treated with 40 μM compounds for 48 h. Cell viability was assessed by adding 10 μL of CCK-8 reagent, dissolved in the cell culture medium, and incubating for 1 h. Absorbance was measured at 450 nm using a microplate reader. IC50 values were determined using a dose-response curve with six concentrations (0, 10, 20, 40, 80, and 160 μM), and IC50 values were calculated using GraphPad Prism software.
# A549 cells [2] = experiment: Annexin V-FITC/PI apoptosis quantification by flow cytometry; format: cell-based, human; conditions: 48 h
# Method: We used these two compounds to clarify this function and explore the underlying mechanism. To investigate whether the new compound could induce cell apoptosis, A549 cells were exposed to different concentrations of 14b and 14c for 48 h. The cells were then stained with Annexin V-FITC and propidium iodide (PI). The Annexin V-FITC/PI staining was performed to quantify the percentage of apoptotic cells by flow cytometry.
# A549 cells were exposed to different concentrations of 14b and 14c (5 μM, 10 μM, and 20 μM) for 48 h. Cells were collected and stained with Annexin V-FITC and PI, and apoptotic cells were measured by flow cytometry. Data are presented as mean ± SEM, *P < 0.05.
# A549 cells were plated at a density of 3 × 10^5 cells per well in a six-well plate. Compounds at concentrations of 0, 5, 10, or 20 μM were added to the cells for 48 h. Cells were then collected, washed with PBS, and stained with Annexin V-FITC and propidium iodide for 20 min. Apoptotic cells were quantified using a flow cytometer, and the data were further analyzed using FlowJo software.
# A549 cells [3] = experiment: Autophagy staining assay (MDC probe); format: cell-based, human; conditions: A549, 10, 20, and 30 μM, 24 h
# Method: To further evaluate the role of 2H-1,4-benzoxazin-3(4H)-one-linked 1,2,3-Triazole derivatives in regulating autophagy, A549 cells were treated with different doses (10, 20, and 30 μM) of compounds 14b and 14c for 24 h, and the autophagosome was detected by MDC (monodansylcadaverine) probe.
# A549 cells were seeded at a density of 2 × 10^3 cells per well in a 96-well plate and treated with compounds at concentrations of 0, 5, 10, 20, and 30 μM for 24 h. After treatment, the medium was replaced, and cells were stained with monodansylcadaverine for 1 h in the dark at 37°C. Cells were then imaged using a confocal microscope.
# KM mice = experiment: Acute toxicity test in mice; format: in vivo; conditions: 800 mg/kg oral gavage; for safety / toxicity in mice: 800 mg/kg
# Method: We further evaluated the safety of compound 14b through an acute toxicity study in KM mice. Male and female mice were divided into two groups: a control group and a 14 b-treated group. The treated group received 800 mg/kg of compound 14b via oral gavage, while the control group was given an equivalent volume of solvent. Body weight was monitored over a 15-day period. At the end of the study, blood samples were collected from the retro-orbital sinus to assess the biochemical markers GPT and GOT, and the major organs—heart, liver, spleen, lungs, and kidneys—were weighed and subjected to HE staining.
Structure (SMILES),"viability at 48 h, 40 µM [1] [%]","percentage of early and late apoptotic cells (A549 cells [2]; A549, 5 μM) [%]","percentage of early and late apoptotic cells (A549 cells [2]; A549, 10 μM) [%]","percentage of early and late apoptotic cells (A549 cells [2]; A549, 20 μM) [%]","autophagy (autophagosome, MDC probe) (A549 cells [3])","HE staining of the major organs (heart, liver, spleen, lungs, and kidneys) (KM mice)",organ indices of the major organs versus control group (KM mice),safety / toxicity in mice (KM mice),body weight versus control group (KM mice; 15-day period),GPT levels (KM mice; blood),safety / toxicity in mice (KM mice; listed as 14 b)
O=C1COc2ccc(NC(=O)c3cccc(-c4cn(-c5cccc(Br)c5)nn4)c3)cc2N1 [Compound 14b],93.2 ± 0.61,13.92,25.85,49.04,autophagy was largely induced,no significant histopathological differences,no significant changes,low toxicity,no significant differences,slight but not statistically significant increase,favorable safety profile
O=C1COc2ccc(NC(=O)c3cccc(-c4cn(-c5ccccc5F)nn4)c3)cc2N1 [Compound 14c],105 ± 2.38,12.57,27.21,72.02,autophagy was largely induced,–,–,–,–,–,–
